# Data reported in patent publication US5364944A, “Substituted benzoylbenzene-, biphenyl- and 2-oxazole- alkanoic acid compounds” (American Home Products Corporation, priority 1993, dated 1994).
# Structures can show the parent of a compound that is named as a salt.
# Experiments:
# [1] = target: T1, LTD4-induced contractions of isolated guinea pig trachea (Cavia porcellus, UniProt Q2NNR5); assay: In vitro isolated guinea pig trachea assay, LTD4 antagonist activity; set-up: species or system guinea pig (male Hartley)
# T1 construct: isolated guinea pig trachea; from tissue; host or cells: tracheal rings of male Hartley guinea pigs
# T1 sequence (Q2NNR5 1-340): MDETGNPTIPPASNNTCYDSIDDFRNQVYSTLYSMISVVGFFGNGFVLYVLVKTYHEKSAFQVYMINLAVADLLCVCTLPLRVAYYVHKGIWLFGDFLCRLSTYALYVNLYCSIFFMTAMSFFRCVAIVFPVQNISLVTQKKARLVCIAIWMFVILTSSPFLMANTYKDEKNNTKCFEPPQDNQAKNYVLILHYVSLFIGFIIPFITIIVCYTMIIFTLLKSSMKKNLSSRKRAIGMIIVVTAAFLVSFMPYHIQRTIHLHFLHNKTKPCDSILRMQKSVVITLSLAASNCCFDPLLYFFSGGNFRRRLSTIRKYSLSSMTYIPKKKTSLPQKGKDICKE
# Description: The LTD4 antagonist activity of the compounds of the invention is assessed in the in vitro isolated guinea pig trachea assay. This assay is carried out as follows: Male Hartley guinea pigs (350-400 g) are euthanized by a blow to the head, the neck is opened and the trachea removed. The trachea is maintained in aerated physiological salt solution, cleared of connective tissue and fat and cut into rings approximately 2 mm in width (usually containing two cartilaginous segments per ring). Two pieces of silk suture are then passed through the lumen of the tracheal ting and are tied around the cartilage, one on each side of the trachealis muscle. The tracheal ring is suspended between a glass hook and a force displacement transducer in a 10 ml organ bath for measurement of isometric tension. […] The tracheal rings are maintained at 2 g resting tension and equilibrated for 45 minutes (with frequent washing and readjustment of resting tension). The tracheal […] contracted by the addition of carbachol (3×10^-6 M), to determine tissue responsiveness and establish a reference contraction. On attainment of a stable level of contraction (approximately 30 minutes), the tissues are washed several times until baseline tension has been restored and the re-equilibrated for 30 minutes. The tissues are then incubated for 45 minutes with a test antiagonist (either 1×10^-6 M or 1×10^-5 M) or 10 μl of an appropriate solvent control (control, nontreated). One tissue in each group serves as the control. Twenty minutes prior to the construction of the LTD4 cumulative concentration-response curve, L-[…]×10^-2 M final bath concentration) is added to inhibit bioconversion of LTD4 to LTE4. Only one LTD4 concentration-response curve is constructed in each tissue. All responses to LTD4 in an individual tissue are measured as a percentage of the reference contraction of that tissue to carbachol. LTD4 antagonist activity is determined by comparison of the concentration response curves of LTD4 in the presence and absence of antagonist. Assessment of the relative rightward shift of the antagonist treated curve relative to the solvent (control) treated tissue is calculated as a concentration ratio (Eq. A) and used in subsequent calculations to derive an antagonist pKB value (Eqs. B and C). […] If a compound is found to be active and/or depress the maximal response to LTD4, then a range of concentrations of the test compound should be used generating multiple concentration ratios which would then be used to perform a Schild analysis, and determination of a pA2 value where appropriate.
# [2] = test system: 5-lipoxygenase in human whole blood; assay: Inhibition of 5-lipoxygenase in human whole blood (LTB4); type: cell-based
# Description: The assay of this Example measures the ability of the compounds tested to inhibit 5-lipoxygenase in human whole blood.
# (§1) This assay is carried out as follows:
# Blood is obtained in 50-100 ml quantities from male donors. White blood cell counts and differentials are made. Two ml of blood are placed in a 15 ml polypropylene test tube. Compounds are solubilized in dimethylsulfoxide and diluted 1:10 in 10% bovine serum albumin in phosphate buffered saline, pH 7.4 resulting in a final dimethylsulfoxide concentration of 0.1% in the blood. Then, compounds are added to the blood in a shaking water bath at 37° C. for 10 minutes prior to the addition of 30 μM calcium ionophore (A23187; Sigma). After ionophore administration, whole blood samples are mixed and incubated for 20 minutes at […] in a shaking water bath. Incubation is terminated by placing samples in an ice bath and immediately adding ethylene glycol-bis-(β-aminoethyl ether)-N,N,N',N'-tetraacetic acid (10 mM). Samples are mixed and centrifuged at 1200×g for 15 minutes at 4° C. Preparation of samples for evaluation by RIA or ELISA is carried out by the following protocol. Plasma is removed from sample tubes, placed in 15 ml polypropylene test tubes containing 8 ml methanol, and then vortexed to precipitate protein. Samples are stored at -70° C. overnight. The next day, samples are centrifuged at 200×g for 15 minutes at 4° C. to pellet the precipitate. Samples are dried in a Savant speed vac concentrator, reconstituted to original volume with ice cold RIA or ELISA buffer, and stored at -70° C. until assayed. The assay for eicosanoids (LTB4, TxB2, and PGE2) is performed as described by the manufacturer of the [^3 H]-RIA kit or ELISA kit (LTB4 -Amersham, TxB2 and PGE2 - Caymen Chemical).
# The total eicosanoid level in 2 ml of blood is calculated and reported as ng/10^6 neutrophils. […] Drug effects are expressed as percent change from control values.
# Compounds tested in vitro are solubilized in dimethylsulfoxide and diluted 1:10 in 10% bovine serum albumin in phosphate buffer saline resulting in a final dimethylsulfoxide concentration of 0.1% in the blood.
# [3] = test system: LTB4; assay: Reverse passive Arthus pleurisy assay, inflammatory mediator release: LTB4; type: in vivo, rat (male Lewis); conditions: for % Inhibition of LTB4 Synthesis: 3 hours before challenge; for % Inh LTB4: standard drugs
# Description: The compounds of the invention are further tested in the reverse passive Arthus pleurisy assay to evaluate their effectiveness in inflammatory mediator release and/or the fluid and cellular phases of an inflammatory response.
# as §1
# A reverse passive Arthus reaction is induced in the pleural cavity of male Lewis rats (150-200 g; fasted overnight prior to use) by the intravenous administration of bovine serum albumin (BSA; 4 mg/0.2 ml) followed 30 minutes later by the injection of rabbit anti-BSA (1 mg/0.2 ml; lyophilized IgG fraction; Organon Teknika, West Chester, Pa.) into the right pleural space under halothane anesthesia. […] Animals are sacrificed at either the time of peak eicosanoid production (i.e. 5 minutes after anti-BSA for immunoreactive TxB2 10 minutes for immunoreactive LTB4, 20 minutes for immunoreactive LTC4) or at the time of peak neutrophil infiltration (4 hours after anti-BSA) by CO2 inhalation. The pleural cavity is then exposed, the fluid exudate removed by gentle vacuum aspiration and the volume of exudate is recorded. For the determination of cellular infiltration, the pleural cavity is rinsed with 3 ml of 0.1% EDTA in sterile saline, and the recovered wash is pooled with the exudate. Cell number is determined on a model ZBI Coulter counter. For determination of eicosanoid production, undiluted pleural exudate is microfuged and the supernatant is extracted with ethanol (8-10 times volume). Extracts are either stored at -20° C., or are evaporated to dryness under a stream of N2 and reconstituted in radioimmunoassay (RIA) buffer.
# Eicosanoids are quantitated by RIA according to the procedure specified by the RIA kit manufacturer (Advanced Magnetics, Cambridge, Mass.). Briefly, 100 μl of ^3 H-labeled eicosanoid and 100 μl of specific antibody are sequentially added to 100 μl of extracted pleural exudate in BGG -phosphate buffer which contains 0.01 M phosphate, 0.1% bovine gamma globulin and 0.1% sodium azide at pH 7.0. Antibody-bound eicosanoid is separated from unbound eicosanoid by the addition of 750 μl of dextran (0.4%)-coated charcoal (0.4% Norit A) containing 0.1% sodium azide. The mixture is centrifuged at 2000 RPM at 5° C. for 15 minutes to pellet the charcoal and adsorbed unbound eicosanoid. Antibody-bound labeled eicosanoid is quantitated by counting in a liquid scintillation counter, and is correlated to concentration by a standard curve.
# Inflammatory cells are expressed as 10^6 cells/ml, pleural exudate is expressed as ml of fluid, and the amount of eicosanoids in the pleural cavity is expressed as ng/ml of exudate. Mean ±S.E.M. is determined for each group. Percent inhibition (% I) of cell number, exudate volume and eicosanoid production is calculated for vehicle-treated control groups, and the responses in drug-treated rats are then expressed as the mean % I of the control. […] Exp. Ther., 96, 99-113 (1949).
# [4] = reference leukotriene antagonists
Compound,Kb ([1]; 1 × 10^-5 M) [nM],IC50 [2] [nM],% Inhibition of LTB4 ([2]; at 10 μM) [%],% Inhibition of LTB4 Synthesis ([3]; 25 mg/kg p.o.) [%],% Inhibition of LTB4 ([2]; at 25 μM) [%],further results
"CN(O)C(=O)Cc1ccc(-c2ccc(OCc3ccccn3)cc2)c(F)c1 [Example 28, 2-Fluoro-N-hyroxy-N-methyl-4'-(2-pyridinylmethoxy)[1,1'-biphenyl]-4-acetamide]",> 3980,2300,66,,,
CN(O)C(=O)Cc1ccc(-c2ccc(OCc3csc(-c4ccccc4)n3)cc2)cc1 [Example 18],> 7940,500,,32,97,
"CC(C)N(O)C(=O)Cc1ccc(-c2ccc(OCc3nc4ccccc4s3)cc2)cc1 [Example 15, N-Hydroxy-N-isopropyl-4'-(2-benzothiazolymethoxy)[1,1'-biphenyl]-4-acetamide]",> 10000,,,,77,% Inhibition of LTB4 Synthesis ([3]; 10 mg/kg p.o.): 12%
"CC(C(=O)N(C)O)c1ccc(-c2ccc(OCc3nc4ccccc4s3)cc2)cc1 (stereo not shown) [Example 17, N-Hydroxy-N.,a,-dimethyl-4'-(2-benzothiazolylmethoxy)[1,1'-biphenyl]-4-acetamide, sodium salt, methanol solvate]",> 3160,,,37,,
CN(O)C(=O)Cc1ccc(-c2ccc(OCc3nc4ccccc4s3)cc2)c(F)c1 [Example 26],> 10000,1300,,7,86,
"CN(O)C(=O)Cc1ccc(-c2ccc(OCc3nc4ccccc4n3C)cc2)c(F)c1 [Example 29, 2-[2-Fluoro-4'-(1-methyl-1H-benzimidazol-2-ylmethoxy)biphenyl-4-yl]-N-hydroxy-N-methyl-4-acetamide]",631,700,74,,,
"CC(C(=O)N(C)O)c1ccc(-c2ccc(OCc3nc4ccccc4n3C)cc2)cc1 (stereo not drawn) [Example 24, N-Hlydroxy-N,α-dimethyl-4'-[(1-methyl-1H-benzimidazol-2-yl)methoxy]-[1,1'-biphenyl]-4-acetamide, hydrochloride salt]",1000,,,56,,
CC(c1ccc(-c2ccc(OCc3nc4ccccc4o3)cc2)cc1)N(O)C(N)=O (stereo not shown) [Example 35],> 5010,,51,,,
"O=S(=O)(Nc1cccc(OCc2ccc3ccccc3n2)c1)C(F)(F)F [Wy-48,252, reference compound]",,,,,,"Kb [1, 4]: 126 nM"
"CC(C(=O)N(C)O)c1ccc(-c2ccc(OCc3nc4ccccc4s3)cc2)cc1 (stereo not drawn) [Example 16, N-Hydroxy-N,α-dimethyl-4'-(2-benzothiazolylmethoxy)[1,1'-biphenyl]-4-acetamide]",,8300,,46,72,
"O=C(Cc1ccc(-c2ccc(OCc3nc4ccccc4s3)cc2)cc1)NO [Example 14, N-Hydroxy-4'-(2-benzothiazolylmethoxy)[1,1'-biphenyl]-4-acetamide]",> 7940,,,,5,
"CN(O)C(=O)Cc1cccc(C(=O)c2ccc(OCc3nc4ccccc4s3)cc2)c1 [Example 30, 2-{3-[4-(Benzothiazol-2-ylmethoxy)-benzoyl]-phenyl}-N-hydroxy-N-methyl-4-acetamide 0,6 ethyl acetate solvate]",,980,96,21,,
CN(O)C(=O)C(Cc1csc(-c2ccccc2)n1)c1ccc(-c2ccc(OCc3csc(-c4ccccc4)n3)cc2)cc1 (stereo not shown) [Example 25],> 7940,,,,,
"O=C(O)CCc1nc(-c2ccc(OCc3ccc4ccccc4n3)cc2)c(-c2ccccc2)o1 [Example 5, 5-Phenyl-4-[4-(2-Quinolinylmethoxy)phenyl]-2-oxazole propanoic acid]",316,,,,11,
"CCCc1c(OCCCCc2nnn[nH]2)ccc(C(C)=O)c1O [Ly-171,883, reference compound]",,,,,,"Kb [1, 4]: 36.3 nM"
CC(=O)N(O)C(C)c1ccc(-c2ccc(OCc3nc4ccccc4n3C)cc2)cc1 (stereo not shown) [Example 37],> 3160,,61,,,
"CC(C(=O)O)c1cccc(C(=O)c2ccccc2)c1 (stereo not shown) [ketoprofen, reference compound]",,,,,,% Inh LTB4 ([3]; 10 mg/kg p.o.): 35%
"O=C(O)Cc1ccccc1Nc1c(Cl)cccc1Cl [Diclofenac, reference compound]",,,,,,% Inh LTB4 ([3]; 10 mg/kg p.o.): 0%
"CC(=O)N(O)C(C)c1ccc(-c2ccc(OCc3nc4ccccc4s3)cc2)cc1 (stereo not shown) [Example 34, N-{1-[4'-(Benzothiazol-2-ylmethoxy)-biphenyl4-yl]-ethyl}-N-hydroxy-acetamide]",> 10000,,36,,,
O=C(O)CCc1nc(-c2ccc(OCc3ccc4ccccc4n3)cc2)c(-c2ccccc2)o1 [Example 10],,,,65,,
